Reference: patent publication US7741344B2, “Process for preparing purified S-BEL and R-BEL and compositions thereof” (Washington University in St. Louis, priority 2002, dated 2010)

What was measured:
[1] = test system: cytosolic phosphatidate phosphohydrolase (PAP-1); test: Cytosolic phosphatidate phosphohydrolase activity of A-10 cell cytosol fraction; type: biochemical, rat; settings: concentrations up to 200 μM BEL; FIG. 6A
Experimental: Measurement of Cytosolic and Membrane-bound Phosphatidate Phosphohydrolase Activities—A-10 cells were grown to confluency, washed twice in ice-cold phosphate-buffered saline, and harvested in lysis buffer (50 mM Tris-HCl, pH 7.4 containing 0.25 M sucrose and 0.2 mM DTT). After brief sonication utilizing a Vibra-Cell VC4O sonicator (5×1 s pulses at 30% power), the lysed cell suspension was centrifuged at 100,000×g for 1 hr to separate cytosolic and membrane fractions. In some tests, A-10 cells were washed and pretreated with BEL or ethanol vehicle (as described above for tests examining [^3H]-AA liberation) before isolation of cell homogenates. […] Reactions were terminated with 900 μL of 5% acetic acid and extracted into chloroform by the method of Bligh and Dyer (38) prior to separating dipaliitoyl glycerol by TLC utilizing chloroform: methanol: water (65:35:2) as the mobile phase prior to quantification by scintillation spectrometry.
A-10 cells plated on 100 mm dishes were washed 2× in ice-cold PBS and harvested in lysis buffer (50 mM Tris-HCl, pH 7.4 containing 0.25 M sucrose and 0.2 mM DTT). […] In panel B, intact A-10 cells were washed and pretreated with BEL or ethanol vehicle (as described in FIG. 5) before isolation of the cell homogenate and quantification of phosphatidate phosphohydrolase activity as described above. […]

recombinant human iPLA2γ = target: T1, recombinant human iPLA2γ (Homo sapiens, UniProt Q9NP80); settings: previous experiments (24, 31); cited from earlier work
T1 construct: Recombinant full-length iPLA2γ was expressed in Sf9 cells; made in house; host or cells: Sf9 cells (washed membrane fraction, not purified)
T1 sequence (Q9NP80 1-782): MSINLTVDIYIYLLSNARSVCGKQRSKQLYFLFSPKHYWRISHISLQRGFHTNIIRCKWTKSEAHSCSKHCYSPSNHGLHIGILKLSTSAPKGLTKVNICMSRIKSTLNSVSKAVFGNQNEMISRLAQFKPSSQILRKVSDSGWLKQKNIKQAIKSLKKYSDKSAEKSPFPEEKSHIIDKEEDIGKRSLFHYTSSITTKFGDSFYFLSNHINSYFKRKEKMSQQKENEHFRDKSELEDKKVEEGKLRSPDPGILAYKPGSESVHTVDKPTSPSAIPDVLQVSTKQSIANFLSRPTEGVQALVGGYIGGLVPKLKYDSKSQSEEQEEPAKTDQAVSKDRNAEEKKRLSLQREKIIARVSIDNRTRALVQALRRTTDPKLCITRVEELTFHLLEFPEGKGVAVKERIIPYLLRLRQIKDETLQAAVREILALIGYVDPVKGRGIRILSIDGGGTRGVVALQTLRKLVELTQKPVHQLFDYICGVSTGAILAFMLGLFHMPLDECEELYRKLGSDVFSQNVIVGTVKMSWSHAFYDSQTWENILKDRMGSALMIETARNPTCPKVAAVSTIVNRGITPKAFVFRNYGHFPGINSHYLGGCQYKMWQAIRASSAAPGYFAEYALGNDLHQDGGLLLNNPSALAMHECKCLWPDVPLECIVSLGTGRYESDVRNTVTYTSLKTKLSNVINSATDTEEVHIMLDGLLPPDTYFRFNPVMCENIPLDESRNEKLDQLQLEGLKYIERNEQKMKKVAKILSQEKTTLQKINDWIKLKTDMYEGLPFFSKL

[2] = test system: PAP-1 in mouse P388D1 macrophages; settings: ≈25 μM; (33); cited from earlier work
[3] = test system: PAP-1 in human amnionic WISH cells; settings: ≈25 μM; (34); cited from earlier work
[4] = test system: cytosolic PAP-1 in McA-RH7777 rat hepatoma cells; settings: 100 μM BEL; (17); cited from earlier work
α-chymotrypsin = target: T2, α-chymotrypsin (Bos taurus, UniProt P00766); test: Inhibition of α-chymotrypsin by BEL; type: biochemical; settings: 2 μM chymotrypsin, up to 5-fold molar excess of inhibitor, 5 min 22° C., then 1000-fold dilution with 100 mM hydrazine; FIG. 3
T2 construct: purchased Sigma
Experimental: Inhibition of α-Chymotrypsin by BEL—The kinetics of α-chymotrrpsin inactivation by (R)-, (S)-, and rac-BEL were performed similar to methods previously described (36). The concentration of α-chymotrypsin (MW=25,000) was determined using an A^1%=20 (1 cm pathlength) at 280 nm (37). Briefly, one milliliter of α-chymotrypsin (2 μM) was incubated with up to a 5-fold molar excess of (R)-,(S)-, or rac-BEL dissolved in acetonitrile or vehicle alone for 5 mm at 22° C. in 0.1 M sodium phosphate buffer, pH 7.2. […] Following incubation at 22° C. for 1 hr, chymotrypsin activity in each diluted sample was measured utilizing a SPECTRAmax GeminiXS microplate spectrofluorometer with N-succinyl-Ala-Ala-Pro-Phe-7-amidomethylcoumarin (50 μM) as substrate for 1 mm at 25° C. Excitation and emission wavelengths were 380 nm and 460 nm, respectively.
Chymotrypsin (2 μM) in 0.1 M sodium phosphate buffer, pH 7.2 was incubated with the indicated concentrations of racemic, (R)-, or (S)-BEL for 5 mm. This solution was then diluted 1000-fold in 0.1 M sodium phosphate buffer, pH 7.2 containing 100 mM hydrazine and incubated for 1 hr at 22° C. Chymotrypsin proteolytic activity was measured spectrofluorometrically using N-succinyl-Ala-Ala-Pro-Phe-7-amido-4-methylcoumarin (50 μM) as substrate.

| SMILES | effect on cytosolic (PAP-1) phosphatidate phosphohydrolase [1] | IC50 (recombinant human iPLA2γ) [µM] | inhibition of PAP-1 in mouse P388D1 macrophages [2] | inhibition of PAP-1 in human amnionic WISH cells [3] | inhibition of cytosolic PAP-1 activity in McA-RH7777 cells [4] | inhibition of chymotrypsin (α-chymotrypsin) |
| --- | --- | --- | --- | --- | --- | --- |
| O=C1OC(=CBr)CCC1c1cccc2ccccc12 (racemic) [rac-BEL, Racemic (E)-6-(bromomethylene)-3-(1-naphthalenyl)-2H-tetrahydropyran-2-one] | lack of any effect | ~3 | effectively inhibit | effectively inhibit | not significantly inhibited |  |
| O=C1O/C(=C/Br)CC[C@@H]1c1cccc2ccccc12 [(R)-BEL, (R)(E)-6-(bromomethylene)-3-(1-naphthalenyl)-2H-tetrahydropyran-2-one] |  |  |  |  |  | stoichiometrically and irreversibly inhibited |
